In US10865194B2, “Therapeutically active bicyclic-sulphonamides and pharmaceutical compositions” (FONDAZIONE ISTITUTO ITALIANO DI TECNOLOGIA, priority 2017, dated 2020):
Where two headings read alike, the source gives them in different places.

Legend:
[1] = molecular target: T1, human NAAA (Homo sapiens, UniProt Q02083); test: In vitro human NAAA fluorogenic assay; assay type: biochemical; conditions: enzyme-enriched lysate of HEK-293 cells stably transfected with human NAAA
T1 construct: expressed in transfected cells; host or cells: HEK-293 (stably transfected, G418 selection); enzyme-enriched lysate
T1 sequence (Q02083 126-359 limits assumed): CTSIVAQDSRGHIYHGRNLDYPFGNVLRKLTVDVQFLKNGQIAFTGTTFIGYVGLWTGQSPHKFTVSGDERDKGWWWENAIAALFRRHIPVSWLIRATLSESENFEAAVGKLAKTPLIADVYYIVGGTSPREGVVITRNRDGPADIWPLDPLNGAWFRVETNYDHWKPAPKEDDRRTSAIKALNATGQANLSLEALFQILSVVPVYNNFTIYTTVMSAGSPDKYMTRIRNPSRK
T1 sequence (Q02083 29-125 limits assumed): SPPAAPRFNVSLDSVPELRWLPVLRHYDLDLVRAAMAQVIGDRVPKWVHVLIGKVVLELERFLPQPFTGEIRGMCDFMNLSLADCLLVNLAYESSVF
Procedure: Human recombinant proteins were obtained from HEK-293 stable overexpressing NAAA cell lines. Cells were grown in Dulbecco's modified Eagle medium (DMEM) containing 10% FBS, 1% penicillin/streptomycin, 1% glutamine and 500 μg/mL G418. To obtain membrane preparation cells were scraped off with cold phosphate-buffered saline (PBS) and collected by centrifugation (300×g, 7 min, 4° C.). Cell pellet were stored at −80° C. until protein preparation.
In Vitro Human NAAA Assay
Preparation of Enzyme-Enriched Lysate (h-NAAA).
HEK-293 cells stably transfected with the human NAAA coding sequences were used as enzyme source. Cell pellets were suspended in 20 mM Tris HCl (pH 7.4) with 0.32 M sucrose, sonicated and centrifuged at 800×g for 30 min at 4° C. Supernatants were then ultracentrifuged at 12,000×g for 30 min at 4° C. Pellets were re-suspended in PBS buffer (pH 7.4) and subjected to three freeze-thaw cycles at −80° C. The suspension was finally ultracentrifuged at 105,000×g for 1 h at 4° C., supematants were collected, protein concentration was measured and samples aliquoted and stored at −80° C. until use.
The results are summarized in Table 3 as follows, wherein +: IC50>2 μM; ++: 1.0 μM<IC50<2 μM; +++: IC50<1 μM: […]

[2] = tested on: Neuro2A cells; test: Inhibition of ROS production in Neuro2A cells (H2O2-induced, DCFH-DA fluorescence); assay type: cell-based; conditions: for Inhibition of ROS production in neuro 2A cells, 5 μM (inhibition) / inhibition at 5 µM: compound 5 μM; for Inhibition of ROS production in neuro 2A cells, 10 μM (inhibition) / inhibition at 10 µM: compound 10 μM; for inhibition at 5 µM / inhibition at 10 µM: Mus musculus, N2a; for inhibition at 5 µM: ROS induced with 0.2 mM H2O2, read-out: Inhibition of ROS production in neuro 2A cells, 5 μM (inhibition); for inhibition at 10 µM: ROS induced with 0.2 mM H2O2, read-out: Inhibition of ROS production in neuro 2A cells, 10 μM (inhibition)
Procedure: The experiments carried out to evaluate the inhibition of ROS production using the compounds of the invention were based on the method reported by Danli W. and Patricia Yotnda in Production and Detection of Reactive Oxygen Species (ROS) in Cancers, J. Vis Exp. 2011; (57):3357.
Cultured brain Neuroblastoma2A (Neuro2A) were used.
15.000 Cells were plated in a 96 well plate with black walls and transparent flat bottom in 100 μL of DMEM complete medium (including 10% fetal bovine serum, […] L-Glutamine) containing compounds at indicated concentrations or 0.5% dimethylsulfoxide (DMSO), and kept overnight at 37° C. to allow them to attach to the plate. The following day the culture medium was removed, cells were washed with 100 μl of Phosphate Buffer Saline, pH 7.4 (PBS) and loaded with 100 μL of PBS containing 10 μM of dichloro-dihydro-fluorescein diacetate (DCFH-DA) and compounds at the indicated concentrations (or DMSO 0.5%) for additional 45 min at 37° C. DCFH-DA was prepared as a 20 mM stock in (DMSO) and kept in the dark at 4° C.
ROS production was induced by exposure with 0.2 mM H2O2 dissolved in 100 μl of complete DMEM medium without phenol red. Fluorescence intensity was measured at an […] wavelengths of 485/535 nm and ROS production was monitored for 2 h, at 37° C.

[3] = read-out: Activity h-NAAA Fluorogenic assay

IC50 [1, 3] | Molecule | further results
< 1000 nM | CCOCc1cnc(OC2CC3CCC(C2)N3S(=O)(=O)c2c(C)n[nH]c2C)cn1 [Example 41, (1R,3r,5S)-8-[(3,5-Dimethyl-1H-pyrazol-4-yl)sulfonyl]-3-[5-(ethoxymethyl)pyrazin-2-yl]oxy-8-azabicyclo[3.2.1]octane] | 
< 1000 nM | Cc1n[nH]c(C)c1S(=O)(=O)N1C2CCC1CC(Oc1ccc(F)cc1)C2 [Example 42, (1R,3r,5S)-3-(4-Fluoro-phenoxy)-8-[(3,5-dimethyl-1H-pyrazol-4-yl)sulfonyl]-8-azabicyclo[3.2.1]octane] | 
< 1000 nM | Cc1n[nH]c(C)c1S(=O)(=O)N1C2CCCC1CC(Oc1cnccn1)C2 [Example 44, (1R,3r,5S)-9-[(3,5-Dimethyl-1H-pyrazol-4-yl)sulfonyl]-3-(pyrazin-2-yloxy)-9-azabicyclo[3.3.1]nonane] | 
> 2000 nM | Cc1n[nH]c(C)c1S(=O)(=O)N1C2CCCC1CC(Oc1cnccn1)C2 [Example 45, (1R,3s,5S)-9-[(3,5-Dimethyl-1H-pyrazol-4-yl)sulfonyl]-3-(pyrazin-2-yloxy)-9-azabicyclo[3.3.1]nonane] | 
> 2000 nM | Cc1n[nH]c(C)c1S(=O)(=O)N1C2COCC1CC(Oc1cnccn1)C2 [Example 46, (1R,3s,5S)-9-[(3,5-Dimethyl-1H-pyrazol-4-yl)sulfonyl]-7-pyrazin-2-yloxy-3-oxa-9-azabicyclo[3.3.1]nonane] | 
> 2000 nM | Cc1n[nH]c(C)c1S(=O)(=O)N1C2COCC1CC(Oc1cnccn1)C2 [Example 47, (1R,3r,5S)-9-[(3,5-Dimethyl-1H-pyrazol-4-yl)sulfonyl]-7-pyrazin-2-yloxy-3-oxa-9-azabicyclo[3.3.1]nonane] | 
> 2000 nM | Cc1n[nH]c(C)c1S(=O)(=O)N1C[C@H]2COC[C@@H](C1)[C@H]2Oc1cnccn1 [Example 48, (1R,5S,9r)-7-((3,5-Dimethyl-1H-pyrazol-4-yl)sulfonyl)-9-(pyrazin-2-yloxy)-3-oxa-7-azabicyclo[3.3.1]nonane] | 
> 2000 nM | Cc1n[nH]c(C)c1S(=O)(=O)N1C[C@H]2COC[C@@H](C1)C2Oc1cnccn1 (stereo partly drawn) [Example 49, (1R,5S,9s)-7-((3,5-Dimethyl-1H-pyrazol-4-yl)sulfonyl)-9-(pyrazin-2-yloxy)-3-oxa-7-azabicyclo[3.3.1]nonane] | 
> 2000 nM | Cc1n[nH]c(C)c1S(=O)(=O)N1C[C@H]2CC[C@@H](C1)C2Oc1cnccn1 (stereo partly drawn) [Example 50, (1R,5S,8r)-3-((3,5-Dimethyl-1H-pyrazol-4-yl)sulfonyl)-8-(pyrazin-2-yloxy)-3-azabicyclo[3.2.1]octane] | 
> 2000 nM | Cc1n[nH]c(C)c1S(=O)(=O)N1C[C@H]2CCC[C@@H](C1)[C@H]2Oc1cnccn1 [Example 51, (1R,5S,9r)-3-((3,5-Dimethyl-1H-pyrazol-4-yl)sulfonyl)-9-(pyrazin-2-yloxy)-3-azabicyclo[3.3.1]nonane] | Inhibition of ROS production in neuro 2A cells, 5 μM (inhibition) ([2]; ROS induced with 0.2 mM H2O2): 0%; Inhibition of ROS production in neuro 2A cells, 10 μM (inhibition) ([2]; ROS induced with 0.2 mM H2O2): 21%
< 1000 nM | Cc1n[nH]c(C)c1S(=O)(=O)N1C[C@H]2CCC[C@@H](C1)[C@@H]2Oc1cnccn1 [Example 52, (1R,5S,9s)-3-((3,5-Dimethyl-1H-pyrazol-4-yl)sulfonyl)-9-(pyrazin-2-yloxy)-3-azabicyclo[3.3.1]nonane] | Inhibition of ROS production in neuro 2A cells, 5 μM (inhibition) ([2]; ROS induced with 0.2 mM H2O2): 9%; Inhibition of ROS production in neuro 2A cells, 10 μM (inhibition) ([2]; ROS induced with 0.2 mM H2O2): 27%
> 2000 nM | Cc1ccc(OC2CC3CCC(C2)N3S(=O)(=O)c2c(C)n[nH]c2C)nn1 [Example 53, (1R,3r,5S)-8-[(3,5-Dimethyl-1H-pyrazol-4-yl)sulfonyl]-3-(6-methylpyridazin-3-yl)oxy-8-azabicyclo[3.2.1]octane] | 

The remaining lines, values behind:

Molecule | IC50 [1, 3] | further results
CCCCc1ccc(OC2CC3CCC(C2)N3S(=O)(=O)c2c(C)n[nH]c2C)cc1 [Example 03, (1R,3s,5S)-3-(4-Butylphenoxy)-8-[(3,5-dimethyl-1H-pyrazol-4-yl)sulfonyl]-8-azabicyclo[3.2.1]octane] |  | IC50 ([1]; Activity h-NAAA Fluorogenic assay): > 2000 nM; Inhibition of ROS production in neuro 2A cells, 5 μM (inhibition) ([2]; ROS induced with 0.2 mM H2O2): 39%; Inhibition of ROS production in neuro 2A cells, 10 μM (inhibition) ([2]; ROS induced with 0.2 mM H2O2): 136%
Cc1n[nH]c(C)c1S(=O)(=O)N1C2CCC1CC(Oc1ccc(C#N)cc1)C2 [Example 08, (1R,3r,5S)-3-(4-Cyanophenoxy)-8-[(3,5-dimethyl-1H-pyrazol-4-yl)sulfonyl]-8-azabicyclo[3.2.1]octane] | < 1000 nM | Inhibition of ROS production in neuro 2A cells, 5 μM (inhibition) ([2]; ROS induced with 0.2 mM H2O2): 0%; Inhibition of ROS production in neuro 2A cells, 10 μM (inhibition) ([2]; ROS induced with 0.2 mM H2O2): 77%
Cc1n[nH]c(C)c1S(=O)(=O)N1C2CCC1CC(Oc1ccc(C#N)cc1)C2 [Example 09, (1R,3s,5S)-3-(4-Cyanophenoxy)-8-[(3,5-dimethyl-1H-pyrazol-4-yl)sulfonyl]-8-azabicyclo[3.2.1]octane] | > 2000 nM | Inhibition of ROS production in neuro 2A cells, 5 μM (inhibition) ([2]; ROS induced with 0.2 mM H2O2): 35%; Inhibition of ROS production in neuro 2A cells, 10 μM (inhibition) ([2]; ROS induced with 0.2 mM H2O2): 56%
CCCCc1ccc(OC2CC3CCC(C2)N3S(=O)(=O)c2c(C)noc2C)cc1 [Example 15, 4-[[(1R,3r,5S)-3-(4-Butylphenoxy)-8-azabicyclo[3.2.1]octan-8-yl]sulfonyl]-3,5-dimethyl-isoxazole] | > 2000 nM | inhibition at 5 µM [2]: 0%; inhibition at 10 µM [2]: 84%
Cc1n[nH]c(C)c1S(=O)(=O)N1C2CCC1CC(Oc1cccnn1)C2 [Example 37, (1R,3r,5S)-8-[(3,5-Dimethyl-1H-pyrazol-4-yl)sulfonyl]-3-pyridazin-3-yloxy-8-azabicyclo[3.2.1]octane] | > 2000 nM | 
Cc1ccc2oc(OC3CC4CCC(C3)N4S(=O)(=O)c3c(C)n[nH]c3C)nc2c1 [Example 38, (1R,3r,5S)-8-[(3,5-Dimethyl-1H-pyrazol-4-yl)sulfonyl]-3-(2-(5-methyl)-benzoxazoloxy)-8-azabicyclo[3.2.1]octane] | < 1000 nM | 
Cc1n[nH]c(C)c1S(=O)(=O)N1C2CCC1CC(Oc1ccc(Cl)cc1)C2 [Example 39, (1R,3r,5S)-3-(4-Chloro-phenoxy)-8-[(3,5-dimethyl-1H-pyrazol-4-yl)sulfonyl]-8-azabicyclo[3.2.1]octane] | < 1000 nM | 
CCCCc1cnc(OC2CC3CCC(C2)N3S(=O)(=O)c2c(C)n[nH]c2C)cn1 [Example 40, (1R,3r,5S)-8-[(3,5-Dimethyl-1H-pyrazol-4-yl)sulfonyl]-3-[5-butylpyrazin-2-yl]oxy-8-azabicyclo[3.2.1]octane] | < 1000 nM | inhibition at 5 µM [2]: 19%; inhibition at 10 µM [2]: 86%
Cc1n[nH]c(C)c1S(=O)(=O)N1[C@@H]2CC[C@H]1C[C@H](Oc1cccnn1)C2 [Example 43, (1R,3s,5S)-8-[(3,5-Dimethyl-1H-pyrazol-4-yl)sulfonyl]-3-pyridazin-3-yloxy-8-azabicyclo[3.2.1]octane] | > 2000 nM | 
O=C(/C=C/c1ccc(O)c2c1[C@H](C(=O)O[C@H](Cc1ccc(O)c(O)c1)C(=O)O)[C@@H](c1ccc(O)c(O)c1)O2)O[C@H](Cc1ccc(O)c(O)c1)C(=O)O [Salvianolic Acid B, Salvianolic acid B, reference compound] |  | Inhibition of ROS production in neuro 2A cells (inhibition), reference at 100 μM ([2]; reference compound 100 μM, ROS induced with 0.2 mM H2O2): 100%
(1R,3r,5S)-3-(4-Hexylphenoxy)-8-[(3,5-dimethyl-1H-pyrazol-4-yl)sulfonyl]-8-azabicyclo[3.2.1]octane [Example 19] | < 1000 nM | 
